Experimental data taken from the NIST ThermoML archive (doi:10.1016/j.jct.2019.02.028).
Numbers after ± are expanded uncertainties.

Assay: xn = mol fraction of the nth substance listed
Conditions: Gas, Burnett expansion method

C=C(F)C(F)(F)F [2,3,3,3-tetrafluoro-1-propene] + FCF
Conditions	mass density [kg/m3]
353.42 K, 2273.3 kPa, x2 = 0.259	105.33 ± 1.3
353.43 K, 588.71 kPa, x2 = 0.874	12.5 ± 0.15
353.43 K, 1253 kPa, x2 = 0.874	28.21 ± 0.32
353.47 K, 861.21 kPa, x2 = 0.874	18.78 ± 0.22
358.31 K, 1928.5 kPa, x2 = 0.698	54.05 ± 0.5
358.32 K, 1240.6 kPa, x2 = 0.449	40.46 ± 0.36
358.33 K, 586.28 kPa, x2 = 0.449	17.94 ± 0.16
358.33 K, 2665 kPa, x2 = 0.698	81.18 ± 0.81
358.34 K, 639.13 kPa, x2 = 0.698	15.95 ± 0.15
358.34 K, 1357.4 kPa, x2 = 0.698	35.99 ± 0.32
358.34 K, 1994 kPa, x2 = 0.119	94.76 ± 0.63
358.34 K, 2418.3 kPa, x2 = 0.449	91.37 ± 0.99
358.34 K, 3167.9 kPa, x2 = 0.449	137.24 ± 1.5
358.34 K, 3474 kPa, x2 = 0.874	95.77 ± 1.1
358.35 K, 591.83 kPa, x2 = 0.259	20.68 ± 0.16
358.35 K, 858.88 kPa, x2 = 0.449	26.94 ± 0.24
358.35 K, 937.43 kPa, x2 = 0.698	23.96 ± 0.21
358.35 K, 1463 kPa, x2 = 0.119	63.06 ± 0.38
358.35 K, 1759.6 kPa, x2 = 0.449	60.82 ± 0.58
358.35 K, 2335.1 kPa, x2 = 0.259	105.31 ± 1.2
358.35 K, 2564.1 kPa, x2 = 0.874	63.62 ± 0.73
358.35 K, 3529.2 kPa, x2 = 0.698	121.89 ± 1.7
358.36 K, 1237.2 kPa, x2 = 0.259	46.66 ± 0.35
358.36 K, 1730.8 kPa, x2 = 0.259	70.06 ± 0.65
358.36 K, 1828.8 kPa, x2 = 0.874	42.36 ± 0.49
358.36 K, 2579.2 kPa, x2 = 0.119	142.43 ± 1.6
358.36 K, 2999.2 kPa, x2 = 0.259	158.78 ± 2.6
358.36 K, 4405.8 kPa, x2 = 0.698	183.14 ± 2.5
358.36 K, 4479.7 kPa, x2 = 0.874	144.13 ± 2.4
358.37 K, 719.85 kPa, x2 = 0.119	27.94 ± 0.15
358.37 K, 862.94 kPa, x2 = 0.259	31.07 ± 0.22
358.37 K, 1037.7 kPa, x2 = 0.119	41.96 ± 0.24
358.38 K, 1274.6 kPa, x2 = 0.874	28.2 ± 0.32
358.38 K, 3076.3 kPa, x2 = 0.119	213.92 ± 3.2
358.39 K, 597.87 kPa, x2 = 0.874	12.5 ± 0.15
358.41 K, 875.21 kPa, x2 = 0.874	18.78 ± 0.22
363.26 K, 1966.8 kPa, x2 = 0.698	54.03 ± 0.5
363.26 K, 2727.3 kPa, x2 = 0.698	81.16 ± 0.8
363.27 K, 1262.7 kPa, x2 = 0.449	40.45 ± 0.36
363.28 K, 595.28 kPa, x2 = 0.449	17.93 ± 0.16
363.28 K, 648.9 kPa, x2 = 0.698	15.95 ± 0.15
363.28 K, 2476.7 kPa, x2 = 0.449	91.33 ± 0.97
363.28 K, 3265.9 kPa, x2 = 0.449	137.17 ± 1.6
363.28 K, 3632.6 kPa, x2 = 0.698	121.86 ± 1.6
363.28 K, 4041.7 kPa, x2 = 0.449	205.81 ± 3.2
363.29 K, 1381.4 kPa, x2 = 0.698	35.97 ± 0.32
363.29 K, 1795.1 kPa, x2 = 0.449	60.79 ± 0.58
363.29 K, 1863 kPa, x2 = 0.874	42.34 ± 0.49
363.29 K, 2043.8 kPa, x2 = 0.119	94.71 ± 0.62
363.29 K, 2396.3 kPa, x2 = 0.259	105.29 ± 1.3
363.29 K, 3100.7 kPa, x2 = 0.259	158.62 ± 2.5
363.29 K, 3726.8 kPa, x2 = 0.259	238.72 ± 2.7
363.29 K, 4575.5 kPa, x2 = 0.698	183.09 ± 2.5
363.3 K, 601.42 kPa, x2 = 0.259	20.68 ± 0.16
363.3 K, 872.75 kPa, x2 = 0.449	26.93 ± 0.23
363.3 K, 1296.1 kPa, x2 = 0.874	28.19 ± 0.32
363.3 K, 1768.3 kPa, x2 = 0.259	70.06 ± 0.64
363.3 K, 2619.4 kPa, x2 = 0.874	63.6 ± 0.72
363.3 K, 2663.3 kPa, x2 = 0.119	142.34 ± 1.5
363.3 K, 3565.6 kPa, x2 = 0.874	95.7 ± 1.1
363.3 K, 4630.5 kPa, x2 = 0.874	143.96 ± 2.4
363.31 K, 731.75 kPa, x2 = 0.119	27.93 ± 0.15
363.31 K, 952.86 kPa, x2 = 0.698	23.95 ± 0.21
363.31 K, 1056.3 kPa, x2 = 0.119	41.95 ± 0.24
363.31 K, 1260.4 kPa, x2 = 0.259	46.66 ± 0.35
363.31 K, 3222.3 kPa, x2 = 0.119	213.79 ± 2.9
363.32 K, 877.52 kPa, x2 = 0.259	31.06 ± 0.22
363.32 K, 1493.6 kPa, x2 = 0.119	63.03 ± 0.37
363.33 K, 606.82 kPa, x2 = 0.874	12.5 ± 0.15
363.33 K, 888.85 kPa, x2 = 0.874	18.77 ± 0.21
368.2 K, 2004.8 kPa, x2 = 0.698	54.02 ± 0.5
368.22 K, 604.3 kPa, x2 = 0.449	17.93 ± 0.16
368.22 K, 658.7 kPa, x2 = 0.698	15.94 ± 0.14
368.22 K, 1285 kPa, x2 = 0.449	40.44 ± 0.36
368.22 K, 2534.6 kPa, x2 = 0.449	91.28 ± 0.96
368.22 K, 2789.6 kPa, x2 = 0.698	81.13 ± 0.79
368.22 K, 3362.6 kPa, x2 = 0.449	137.11 ± 1.6
368.22 K, 4205.2 kPa, x2 = 0.449	205.77 ± 7.4
368.23 K, 967.59 kPa, x2 = 0.698	23.94 ± 0.21
368.23 K, 1830.4 kPa, x2 = 0.449	60.77 ± 0.57
368.23 K, 3201.4 kPa, x2 = 0.259	158.47 ± 2.4
368.23 K, 3655.1 kPa, x2 = 0.874	95.63 ± 1.1
368.23 K, 3734.8 kPa, x2 = 0.698	121.83 ± 1.6
368.23 K, 3898.2 kPa, x2 = 0.259	238.37 ± 3.1
368.23 K, 4743.3 kPa, x2 = 0.698	183.03 ± 2.4
368.24 K, 610.69 kPa, x2 = 0.259	20.68 ± 0.16
368.24 K, 1317.5 kPa, x2 = 0.874	28.18 ± 0.32
368.24 K, 1405.2 kPa, x2 = 0.698	35.96 ± 0.32
368.24 K, 1523.3 kPa, x2 = 0.119	63.01 ± 0.37
368.24 K, 1805.3 kPa, x2 = 0.259	70.05 ± 0.63
368.24 K, 1897.2 kPa, x2 = 0.874	42.33 ± 0.49
368.24 K, 2093.2 kPa, x2 = 0.119	94.66 ± 0.61
368.24 K, 2457.3 kPa, x2 = 0.259	105.26 ± 1.2
368.24 K, 2674.2 kPa, x2 = 0.874	63.58 ± 0.72
368.24 K, 4778.9 kPa, x2 = 0.874	143.8 ± 2.3
368.25 K, 743.56 kPa, x2 = 0.119	27.92 ± 0.15
368.25 K, 886.98 kPa, x2 = 0.449	26.92 ± 0.23
368.25 K, 1075 kPa, x2 = 0.119	41.94 ± 0.24
368.25 K, 1283.3 kPa, x2 = 0.259	46.65 ± 0.34
368.25 K, 2746.3 kPa, x2 = 0.119	142.24 ± 1.4
368.25 K, 4383.2 kPa, x2 = 0.259	361.18 ± 5.9
368.26 K, 891.98 kPa, x2 = 0.259	31.06 ± 0.22
368.26 K, 3365.6 kPa, x2 = 0.119	213.65 ± 3.7
368.27 K, 3774.3 kPa, x2 = 0.119	320.57 ± 8.2
368.28 K, 615.74 kPa, x2 = 0.874	12.49 ± 0.15
368.29 K, 902.66 kPa, x2 = 0.874	18.76 ± 0.21
373.13 K, 2042.5 kPa, x2 = 0.698	54 ± 0.5
373.14 K, 613.24 kPa, x2 = 0.449	17.92 ± 0.16
373.15 K, 668.24 kPa, x2 = 0.698	15.94 ± 0.14
373.15 K, 1428.2 kPa, x2 = 0.698	35.95 ± 0.32
373.15 K, 2592.1 kPa, x2 = 0.449	91.24 ± 0.94
373.15 K, 4365.9 kPa, x2 = 0.449	205.72 ± 6.9
373.15 K, 4909.8 kPa, x2 = 0.698	182.98 ± 2.3
373.16 K, 982.7 kPa, x2 = 0.698	23.94 ± 0.21
373.16 K, 2850.9 kPa, x2 = 0.698	81.11 ± 0.79
373.16 K, 3458.2 kPa, x2 = 0.449	137.04 ± 1.5
373.16 K, 3835.9 kPa, x2 = 0.698	121.81 ± 1.6
373.17 K, 1307 kPa, x2 = 0.449	40.43 ± 0.36
373.17 K, 1552.9 kPa, x2 = 0.119	62.98 ± 0.37
373.17 K, 1842 kPa, x2 = 0.259	70.05 ± 0.62
373.17 K, 2141.9 kPa, x2 = 0.119	94.62 ± 0.6
373.17 K, 3744.3 kPa, x2 = 0.874	95.56 ± 1.1
